What was measured:
P. falciparum Dd2 = assay: Phenotypic screen: asexual blood stage EC50 determination (SYBR Green I); format: cell-based; conditions: values in Data S1 (not shown)
Method: Asexual blood stage parasites grown in the Chakrabarti laboratory were cultured based on a protocol by Trager and Jensen[57] with some modifications.[35] Culture was maintained at 4% hematocrit with human A+ whole blood obtained from the Florida OneBlood, in RPMI 1640 supplemented with 25 mM HEPES pH 7.4, 26 mM NaHCO3, 2% dextrose, 15 mg/L hypoxanthine, 25 mg/L gentamycin, and 0.5% Albumax II. Incubator conditions remained at 37°C and 5% CO2, 5% O2, 90% N2, or 95% air. For comparison screening using serum vs Albumax II, culture media was changed from RPMI with 0.5% Albumax II to RPMI with 10% human serum and maintained for a minimum of 2 weeks prior to assay use.
(§1) Inhibitor EC50 determination in 3D7 and Dd2 was performed as discussed in,[35] based on established protocols.[60] Assays utilized asynchronous culture at 1% parasitemia, 1% hematocrit. Culture was incubated with compound dilutions for 72 h followed by freezing at −80°C to promote lysis, then thawing and incubation for 45 min–1 h with 1× SYBR Green I in a lysis buffer (20 mM Tris-HCL, 0.08% saponin, 5 mM EDTA, and 0.8% Triton X-100). Fluorescence was read 485 nm excitation, 530 nm emission on a Synergy Neo2 multimode reader (BioTek Winsooki, VT) and EC50 curves were generated using CDD Vault (https://www.collaborativedrug.com/).

[1] = system: P. falciparum asexual blood stage parasites grown in 10% human serum; assay: Antiplasmodial activity with serum media; format: cell-based; conditions: Plasmodium falciparum, 336 h; RPMI with 10% human serum, maintained minimum 2 weeks; mean ± SEM from 3 biological replicates
Method: (§2) Asexual blood stage parasites grown in the Chakrabarti laboratory were cultured based on a protocol by Trager and Jensen[57] with some modifications.[35] […] For comparison screening using serum vs Albumax II, culture media was changed from RPMI with 0.5% Albumax II to RPMI with 10% human serum and maintained for a minimum of 2 weeks prior to assay use.
as §1

[2] = system: P. falciparum asexual blood stage parasites grown in 0.5% Albumax II; assay: Antiplasmodial activity with Albumax II media; format: cell-based; conditions: Plasmodium falciparum; RPMI with 0.5% Albumax II; mean ± SEM from 3 biological replicates
Method: as §2, §1

[3] = concentrations up to 200 μM; propionate buffer pH 5.2, 16 h, 37°C; biological triplicate
Method: Assay plates were incubated at 37°C with gentle shaking for 16 h. A combination of 7.5% SDS in a 0.1 M bicarbonate buffer (pH 9.1) was then added to microtiter wells at a 1:3 ratio with gentle mixing. Plates were incubated for 10 min to allow crystals to settle before taking 50 μL of supernatant and adding it to 200 μL of 2.5% SDS in a 0.1 M bicarbonate buffer, pH 9.1. After mixing, absorbances were read at 405 nm on a Synergy Neo2 multimode reader (BioTek, Winsooki, VT). […] Images of the 200 μM treatment or control prior to SDS quenching were taken using a Nikon Eclipse TE200 inverted microscope.

PfMDR1 cKD parasite line = assay: MDR1 compound susceptibility assay (Renilla luciferase); format: cell-based, P. falciparum
From the text: A conditional knockdown parasite line was generated for the P. falciparum multi-drug resistance 1 (MDR1; PF3D7_0523000) following previously described procedures.[84]^,[85] The native PfMDR1 locus was engineered using CRISPR/SpCas9 to afford transcriptional fusion of 10 tandem TetR-DOZI binding aptamers in the 3′UTR for anhydrotetracycline (aTc)-dependent regulation of PfMDR1 expression.
(§3) As a control cell line, a parasite line expressing an aptamer-regulatable fluorescent protein integrated in the cg6 locus[84] was assayed in parallel. Synchronous ring-stage parasites in the presence (0.5 μM) and absence of aTc were dispensed into 384-well polystyrene microplates (Corning®), and compounds added using the Janus® platform (PerkinElmer). DMSO- and DHA (0.5 μM) served as normalization controls for maximal and minimum signal. Luminescence was measured after 72 h and IC50 values were obtained from normalized dose-response curves using GraphPad Prism Version 8.

[4] = system: wild-type YFP-expressing NF54; assay: MDR1 compound susceptibility assay, control line; format: cell-based, P. falciparum; conditions: Plasmodium falciparum, NF54, MDR1, 72 h, read-out: IC50 in the wild-type YFP-expressing NF54
Method: as §3

Q: For “Ac-Aib-L-Asn-L-Leu-L-Ile-Aib-L-Pro-D-Iva-L-Leu-Aib-L-Pro-L-Leu-NH2 [Harzianin HB I – amide, synthesized amide of an 11-AA peptaibol]”, which “activity of new isomers relative to their original counterparts” value (P. falciparum Dd2) is on record?
A: decreased inhibition

Q: Which results are given for CCN(CC)CCCC(C)Nc1ccnc2cc(Cl)ccc12 (stereo not shown) [CQ, chloroquine, reference compound]?
A: EC50 [1]: 0.1 ± 0.02 µM; EC50 [2]: 0.16 ± 0.01 µM; inhibition of β-hematin crystallization [3]: clear, dose-dependent inhibition

Q: What does the source list for OC(c1cc(C(F)(F)F)nc2c(C(F)(F)F)cccc12)C1CCCCN1 (stereo not shown) [mefloquine, reference compound]?
A: IC50 (PfMDR1 cKD parasite line; Plasmodium falciparum, MDR1, 72 h, read-out: IC50 when the protein was knocked down): 0.005 µM; shift in sensitivity upon PfMDR1 knockdown (PfMDR1 cKD parasite line; with (0.5 μM) vs without aTc, 72 h, luminescence): ~12 fold; IC50 [4]: 0.0004 µM

From publication PMC10923054, “Antiplasmodial peptaibols act through membrane directed mechanisms” (Cell Chemical Biology, 2024)
